Data set [1] in a line: Crystal form stability experiment (XRPD). The following applies: for Results (XRPD): uncapped or sealed, protected from light, 7 days and 14 days. In kind it is physicochemical. The procedure:
1. […] The crystal forms stability test was carried out under the specified experimental conditions.

Data set [2] can be described thus: PK in rat, oral suspension. Type of data set: in vivo. The following applies: Sprague-Dawley, plasma, SD rats, PO: 5 mg/kg, suspension in 0.5% CMC-Na. The procedure:
The plasma samples were collected at 0 hour (pre-dose), 0.083, 0.25, 0.5, 1, 2, 4, 6, 8, 24 hours post-dose. Plasma drug concentration was detected by LC-MS/MS. Pharmacokinetic parameters were calculated using WinNonlin's software with non-compartmental model.

A short description of data set [3]: PK in dog, oral suspension. The conditions noted are these: for AUC(0-t) / Cmax / half-life: dog, plasma, Beagle dogs, suspension in 0.5% CMC-Na. In kind it is in vivo, Beagle dogs. The procedure: Then plasma samples were collected at 0 hour (pre-dose), 0.083, 0.25, 0.5, 1, 2, 4, 6, 8, 24 hours post-dose. Plasma drug concentration was detected by LC-MS/MS. Pharmacokinetic parameters were calculated using WinNonlin's software with non-compartmental model.

Regarding `Cc1cc(Nc2nc(C[C@@]3(C(=O)[O-])CCN(Cc4cccc(Cl)c4F)[C@H](C)C3)cc(C)c2F)n[nH]1.[K+]` [Polymorph form II, potassium (2R,4R)-1-(3-chloro-2-fluorobenzyl)-4-((5-fluoro-4-methyl-6-((5-methyl-1H-pyrazol-3-yl)amino)pyridin-2-yl)methyl)-2-methylpiperidine-4-carboxylate], the solid form conversion entry in data set [1] (after drying under 40° C. overnight) is reported as “converted to polymorph form I”.
Turning to `Cc1cc(Nc2nc(C[C@@]3(C(=O)[O-])CCN(Cc4cccc(Cl)c4F)[C@H](C)C3)cc(C)c2F)n[nH]1.[K+]` [polymorph form I, potassium (2R,4R)-1-(3-chloro-2-fluorobenzyl)-4-((5-fluoro-4-methyl-6-((3-methyl-1H-pyrazol-5-yl)amino)pyridin-2-yl)methyl)-2-methylpiperidine-4-carboxylate monohydrate], the “Results (XRPD)” value in data set [1] (Accelerated (40° C. ± 2° C., 75% RH ± 10% RH)) was “Polymorph form I”; in data set [1] (Long-time (25° C. ± 2° C., 65% RH ± 10% RH)) it was “Polymorph form I”. Besides, the “relative stability of the forms” value in data set [1] (at room temperature) is recorded as “most stable”. Further, the crystal form stability entry in data set [1] (long-term and accelerated conditions for 14 days) is on record as “remained unchanged”. The AUC(0-t) was determined as 93300 ng·h/mL in data set [2], 45500 ng·h/mL in data set [3] (PO: 3 mg/kg) and 165000 ng·h/mL in data set [3] (PO: 10 mg/kg). Also, the Cmax is 12400 ng/mL in data set [2], 14400 ng/mL in data set [3] (PO: 3 mg/kg) and 45000 ng/mL in data set [3] (PO: 10 mg/kg). The half-life was 4.11 h in data set [2], 8.12 h in data set [3] (PO: 3 mg/kg) and 4.51 h in data set [3] (PO: 10 mg/kg). The “absorption and exposure in vivo” value in data set [3] (oral, summary of Examples 6 and 7 (rat and dog)) is “great absorption and a high exposure”.
For `Cc1cc(Nc2nc(C[C@@]3(C(=O)[O-])CCN(Cc4cccc(Cl)c4F)[C@H](C)C3)cc(C)c2F)n[nH]1.[K+]` [amorphous, potassium (2R,4R)-1-(3-chloro-2-fluorobenzyl)-4-((5-fluoro-4-methyl-6-((5-methyl-1H-pyrazol-3-yl)amino)pyridin-2-yl)methyl)-2-methylpiperidine-4-carboxylate], in data set [1] (sealed for more than two weeks), the solid form conversion result is “transformed to Polymorph form I”.
Consider `Cc1cc(Nc2nc(C[C@@]3(C(=O)[O-])CCN(Cc4cccc(Cl)c4F)[C@H](C)C3)cc(C)c2F)n[nH]1.[K+]` [Polymorph form III, potassium (2R,4R)-1-(3-chloro-2-fluorobenzyl)-4-((5-fluoro-4-methyl-6-((5-methyl-1H-pyrazol-3-yl)amino)pyridin-2-yl)methyl)-2-methylpiperidine-4-carboxylate], for which the solid form conversion entry in data set [1] (when cooled back to room temperature) is on record as “converted to polymorph form I”.

One may read the AUC(0-t) as the area under the concentration-time curve up to a stated or last time point. Low readings indicate less exposure, high ones more exposure. In general, Cmax refers to the highest concentration seen after dosing. One may read the half-life as the time in which the quantity being followed falls by half. A lower half-life goes with rapid decline.

Source of the values: US20240376075A1, “POLYMORPHIC FORMS OF AURORA A SELECTIVE INHIBITORS AND USES THEREOF” (Jacobio Pharmaceuticals Co., Ltd., priority 2021, published 2024).
